Data on ten molecules can be found in patent US10174013B2, “Benzimidazole derivatives as kinase inhibitors” (SELVITA S.A., priority 2012, dated 2019).

One data set relates to MV4-11 xenograft. Kind of data set: MV4-11 xenograft in immunocompromised mice. Type of data set: in vivo. From the text:
Several compounds of the present invention have been studied in a xenograft in mice, an in vivo tumor transplantation model used to investigate the factors involved in malignant transformation, invasion and metastasis, as well as to examine response to therapy. For the purpose of acceptance of donor leukemic cells (MV4-11 or MOLM16 cells), immunocompromised mice were used, namely particularly severely compromised immunodeficient mice (NOD/scid, SCID/beige). When tumors developed size of approx. 50-200 mm^3, the compounds as indicated below in Tables 3 and 3a were administered orally every day for 2-3 weeks, in once a day (QD) or twice a day (BID) schedule. During the course of the experiment, the mice were monitored and the following two parameters were measured: the tumor growth inhibition (TGI) factor as a measure of therapeutic efficacy and the body weight change (ΔBW) factor as a measure of possible compound toxicity. The results are depicted in Tables 3 and 3a.
Next, compound 26A was evaluated in a xenograft study of acute myeloid leukemia (MV-4-11), alone or in a combinational treatment with Cytarabine in vivo (Table 3b; FIG. 6). Compound 26A was tested in two doses (50 and 25 mg/kg) and administered twice a day (BID); Cytarabine was administered at dose of 50 mg/kg three times in a week (TIW). During 15 days of compound administration dose-dependent anti-cancer activity of compound 26A (administered alone) was shown. Tumor growth inhibition reached −82% and −77%, respectively.

The next data set deals with MV4-11 cells. Kind of data set: Growth inhibition, MTS assay, MV4-11. Type of data set: cell-based, Human. The following applies: MTS cell viability, read-out: MV4-11 ED50. (In general: Formazan colour is commonly taken as a measure of viable cells.)
The target in another data set is CDK2/E (Homo sapiens (Human), UniProt P24941). Briefly: ADP-Glo Kinase Assay, CDK2/E. Type of data set: biochemical. The following applies: 1 μM compound; for inhibition at 1 µM: read-out: CDK2/E % INH (1 μM). Put shortly: (§1)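 Buffer was MOPS 5 mM (pH 7.5) with MgCl2, EDTA and DTT; ATP set at apparent Km per kinase. Compounds were diluted in assay buffer to 1000 nM. Kinase-generated ADP was converted to luciferase signal and normalised to percent inhibition.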
(In general: ADP-Glo turns the ADP formed in a reaction into a luminescent signal.)

For another data set, the system named is Jeko-1 cells. Briefly: Growth inhibition, MTS assay, Jeko-1. Format: cell-based, Human. As to conditions: 72 hours, MTS cell viability, read-out: Jeko-1 ED50. The source says: (§2) The following cell lines, were obtained and used in tests as outlined below: • Human myelomonocytic, biphenotypic leukemia MV4-11 cells (harboring a Flt3-ITD mutation); • Human Acute Myeloid Leukemia MOLM16 cells; • Human Acute Myeloid Leukemia MOLM13 cells (harboring a Flt3-ITD mutation); • Human Myeloid Leukemia KG-1 cells; • Human erythroleukemia HEL92 cells; • Human mantle cell lymphoma Jeko-1 cells; • Human hepatocellular carcinoma HepG2 cells; and • Human colon adenocarcinoma SW-480 cells.
(§3) The assays were carried out according to the following protocol, which is described as an example for the MV4-11 cells:
(§4) Ten thousand MV4-11 cells were inoculated into each well of a 96-well microplate (manufactured by Corning Corp.) using Iscove's MDM medium (culture medium) containing 10% fetal calf serum (FCS). The same day, a dimethyl sulfoxide (DMSO) solution of each test compound prepared in a concentration of 10 mmol/L was further diluted with DMSO to the desired concentrations (0.1, 0.5, 1, 2.5, 5 and 10 micromol/L), and the diluted solution was added to each well. The individual wells were further cultured in 5% carbon dioxide at 37° C. for 72 hours. […] Briefly, 10 μl MTS (3-(4,5-Dimethyl-2-thiazolyl)-5-(carboxymethoxyphenyl)-2-(4-sulfophenyl)-2H-tetrazolium was added to each well, and culturing was performed in 5% carbon dioxide at 37° C. for 2 hours. After this incubation and using a microplate spectrophotometer (Synergy 2 multi-mode microplate reader (BioTek)), the absorbance of each well was measured at 490 nm. The value for cells not incubated with a test compound was designated as 100%. By comparing these values with the absorbance difference obtained at the well in which each test compound was added, the cell viability (% viability) after treatment with the test compound was calculated.

For another data set, the system named is SW-480 cells. Kind of data set: Growth inhibition, MTS assay, SW-480. The following applies: 72 hours, MTS cell viability, read-out: SW-480 ED50. Format: cell-based, Human.
Source text: as §2, §3, §4

In another data set the target is Pim-2 (Homo sapiens (Human), UniProt Q9P1W9). Briefly: ADP-Glo Kinase Assay, Pim-2. Type of data set: biochemical. The following applies: 1 μM compound; for inhibition at 1 µM: read-out: Pim-2 % INH (1 μM). Put shortly:
as §1

The next data set has as its target FLT3wt (Homo sapiens (Human), UniProt P36888). Briefly: ADP-Glo Kinase Assay, Flt3 wt. Type of data set: biochemical. The following applies: 1 μM compound; for inhibition at 1 µM: read-out: Flt3wt % INH (1 μM). The essentials: as §1
The next data set deals with Pim-1 (Homo sapiens (Human), UniProt P11309). Kind of data set: ADP-Glo Kinase Assay, Pim-1. Type of data set: biochemical. The following applies: 1 μM compound; for inhibition at 1 µM: read-out: Pim-1 % INH (1 μM). Put shortly:
as §1

The next data set has as its system HepG2 cells. Kind of data set: Growth inhibition, MTS assay, HepG2. The following applies: MTS cell viability, read-out: HepG2 ED50. Format: cell-based, Human.
In the next data set the test system is HEL92 cells. Kind of data set: Growth inhibition, MTS assay, HEL92. Format: cell-based, Human. As to conditions: MTS cell viability, read-out: HEL92 ED50.
A further data set addresses Pim-3 (Homo sapiens (Human), UniProt Q86V86). Briefly: ADP-Glo Kinase Assay, Pim-3. Type of data set: biochemical. As to conditions: 1 μM compound; for inhibition at 1 µM: read-out: Pim-3 % INH (1 μM). The essentials:
as §1

A further data set concerns the target DYRK1 (Homo sapiens (Human), UniProt Q13627). Kind of data set: ADP-Glo Kinase Assay, DYRK1. Type of data set: biochemical. As to conditions: 1 μM compound; for inhibition at 1 µM: read-out: DYRK1A % INH (1 μM). The essentials:
as §1

The mark [1] stands for this setting: MV-4-11 xenograft, Cytarabine 50 mg/Kg TIW.
Setting [2] is: MV4-11 xenograft, oral, 150 mg/Kg QD.

The structures appear in SMILES notation. Structures can show the parent of a compound that is named as a salt. Where two headings read alike, the source gives them in different places.

Chain of FLT3wt (P36888 27-993): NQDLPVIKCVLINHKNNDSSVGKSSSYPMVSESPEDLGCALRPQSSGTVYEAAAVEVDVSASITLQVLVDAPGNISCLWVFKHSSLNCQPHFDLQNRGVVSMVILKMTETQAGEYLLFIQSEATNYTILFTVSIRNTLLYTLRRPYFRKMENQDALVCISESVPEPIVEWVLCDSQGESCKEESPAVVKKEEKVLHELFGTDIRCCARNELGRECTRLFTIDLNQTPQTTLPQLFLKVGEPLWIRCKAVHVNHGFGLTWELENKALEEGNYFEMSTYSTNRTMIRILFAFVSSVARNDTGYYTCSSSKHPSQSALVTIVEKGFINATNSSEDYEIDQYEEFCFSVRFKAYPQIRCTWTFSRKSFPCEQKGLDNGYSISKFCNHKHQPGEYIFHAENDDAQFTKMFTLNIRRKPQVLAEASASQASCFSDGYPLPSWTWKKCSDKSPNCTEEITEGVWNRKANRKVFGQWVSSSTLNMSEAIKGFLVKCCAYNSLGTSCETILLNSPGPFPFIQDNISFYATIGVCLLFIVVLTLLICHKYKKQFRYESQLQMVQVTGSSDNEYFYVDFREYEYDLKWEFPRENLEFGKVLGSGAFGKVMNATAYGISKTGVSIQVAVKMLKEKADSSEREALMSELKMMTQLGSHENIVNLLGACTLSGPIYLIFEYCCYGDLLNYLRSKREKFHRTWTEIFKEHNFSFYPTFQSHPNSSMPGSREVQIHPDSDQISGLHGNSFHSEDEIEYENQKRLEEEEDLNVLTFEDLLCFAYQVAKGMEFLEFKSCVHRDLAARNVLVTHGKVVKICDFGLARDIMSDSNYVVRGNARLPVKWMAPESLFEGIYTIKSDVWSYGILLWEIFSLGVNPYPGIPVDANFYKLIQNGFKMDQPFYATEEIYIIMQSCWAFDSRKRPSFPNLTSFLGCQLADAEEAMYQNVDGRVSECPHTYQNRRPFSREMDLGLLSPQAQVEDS
Chain of Pim-1 (P11309 whole entry): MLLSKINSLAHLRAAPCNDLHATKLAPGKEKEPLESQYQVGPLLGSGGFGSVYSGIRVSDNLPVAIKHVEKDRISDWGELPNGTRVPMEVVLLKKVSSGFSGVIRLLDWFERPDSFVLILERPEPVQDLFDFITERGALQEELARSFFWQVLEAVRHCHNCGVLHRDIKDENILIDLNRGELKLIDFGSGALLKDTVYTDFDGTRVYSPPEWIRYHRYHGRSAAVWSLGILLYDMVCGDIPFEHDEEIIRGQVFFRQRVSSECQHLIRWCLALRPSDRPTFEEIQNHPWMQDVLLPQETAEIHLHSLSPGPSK
Chain of Pim-2 (Q9P1W9 whole entry): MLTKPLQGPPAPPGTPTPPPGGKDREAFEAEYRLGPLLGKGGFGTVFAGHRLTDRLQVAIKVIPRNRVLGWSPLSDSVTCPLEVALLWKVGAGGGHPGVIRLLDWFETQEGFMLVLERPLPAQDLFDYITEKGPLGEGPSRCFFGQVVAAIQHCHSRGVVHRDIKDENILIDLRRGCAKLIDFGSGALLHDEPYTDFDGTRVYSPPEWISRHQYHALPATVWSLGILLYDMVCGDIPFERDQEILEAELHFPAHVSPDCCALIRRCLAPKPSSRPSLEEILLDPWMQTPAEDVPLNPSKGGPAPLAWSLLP

Regarding `Nc1ccn([C@@H]2O[C@H](CO)[C@@H](O)[C@@H]2O)c(=O)n1` [Cytarabine, cytarabine, reference compound], in the data set on MV4-11 xenograft (setting [1]), the “TGI (tumor growth inhibition)” value is listed as 60% and the “ΔBW (body weight change)” value is −2%.

Regarding `NCCCNc1nc2c([N+](=O)[O-])c(Br)c(Br)cc2n1CC1CC1` [Example 1AB], the IC50 stood at 2800 nM with MV4-11 cells (72 hours); 1200 nM with Jeko-1 cells; 3200 nM in the data set on SW-480 cells; 2300 nM in the data set with HepG2 cells (72 hours); 5800 nM with HEL92 cells (72 hours). For the same molecule, the “CDK2/E % INH (1 μM)” value at CDK2/E is recorded as under 5%. At Pim-2, the “Pim-2 % INH (1 μM)” value stood at 46%. Moreover, the “Flt3wt % INH (1 μM)” value at FLT3wt is under 5%. Besides, the “Pim-1 % INH (1 μM)” value on Pim-1 was over 95%. The “Pim-3 % INH (1 μM)” value at Pim-3 worked out at 87%.

For the molecule `CC(C)n1c(N2CC[C@H](N)C2)nc2c([N+](=O)[O-])c(Br)c(Br)cc21` [Example 1AZ], the “DYRK1A % INH (1 μM)” value at DYRK1 was 72%. Moreover, the IC50 in the data set on MV4-11 cells (72 hours) was 1100 nM; in the data set on HepG2 cells (72 hours), 2200 nM; in the data set on HEL92 cells (72 hours), 2600 nM. Besides, the “CDK2/E % INH (1 μM)” value at CDK2/E was determined as 38%. Also, the “TGI (tumor growth inhibition)” value was 76% in the data set with MV4-11 xenograft (setting [2]) and “more than 70%” in the data set on MV4-11 xenograft (MV4-11 xenograft, oral, doses as in Table 3). In addition, the “ΔBW (body weight change)” value in the data set on MV4-11 xenograft (setting [2]) is recorded as −0.2%. For the same molecule, the “Pim-2 % INH (1 μM)” value at Pim-2 came out at 70%. Further, the “Flt3wt % INH (1 μM)” value on FLT3wt is recorded as 48%. Further, the “Pim-1 % INH (1 μM)” value on Pim-1 is reported as over 95%. Further, the “Pim-3 % INH (1 μM)” value on Pim-3 worked out at 94%.

With `CC(C)n1c(N2CCCC(N)C2)nc2c([N+](=O)[O-])c(Br)c(Br)cc21` (stereo not shown) [Example 1T], the inhibition at 1 µM was 27% on DYRK1; 7% at CDK2/E; 81% on Pim-2; 21% at FLT3wt; over 95% on Pim-1; over 95% on Pim-3. The IC50 with MV4-11 cells (Homo sapiens, MV4-11, 72 h) is 600 nM; in the data set on Jeko-1 cells (Homo sapiens, JeKo-1), 1700 nM; with SW-480 cells (Homo sapiens, SW480), 3200 nM; in the data set on HepG2 cells (Homo sapiens, HepG2, 72 h), 1300 nM; in the data set on HEL92 cells (Homo sapiens, 72 h), 5100 nM.

For `CCCn1c(N2CCCC(N)C2)nc2c([N+](=O)[O-])c(Br)c(Br)cc21` (stereo not shown) [Example 1U], the inhibition at 1 µM at DYRK1 was 35%; at CDK2/E, under 5%; on Pim-2, 37%; on FLT3wt it was 9%; at Pim-1 it was over 95%; on Pim-3, over 95%. Besides, the IC50 was found to be 600 nM with MV4-11 cells (Homo sapiens, MV4-11, 72 h); 1800 nM with Jeko-1 cells (Homo sapiens, JeKo-1); 3300 nM with SW-480 cells (Homo sapiens, SW480); 1500 nM with HepG2 cells (Homo sapiens, HepG2, 72 h); 4700 nM in the data set on HEL92 cells (Homo sapiens, 72 h).

Consider `CC(C)Cn1c(N2CCCC(N)C2)nc2c([N+](=O)[O-])c(Br)c(Br)cc21` (stereo not shown) [Example 1V], for which the inhibition at 1 µM was 11% at DYRK1; under 5% on CDK2/E; under 5% at FLT3wt; over 95% at Pim-1; over 95% at Pim-3. The IC50 in the data set on MV4-11 cells (Homo sapiens, MV4-11, 72 h) amounted to 700 nM; with Jeko-1 cells (Homo sapiens, JeKo-1), 2900 nM; in the data set on SW-480 cells (Homo sapiens, SW480), 3100 nM; in the data set on HepG2 cells (Homo sapiens, HepG2, 72 h), 900 nM; in the data set with HEL92 cells (Homo sapiens, 72 h), 5600 nM.

As to `CCn1c(N2CCCC2CN)nc2c([N+](=O)[O-])c(Br)c(Br)cc21` (stereo not shown) [Example 1Z], the IC50 is 1700 nM in the data set on MV4-11 cells (Homo sapiens, MV4-11, 72 h); 5600 nM with Jeko-1 cells (Homo sapiens, JeKo-1); 6900 nM in the data set on SW-480 cells (Homo sapiens, SW480); 6400 nM in the data set on HepG2 cells (Homo sapiens, HepG2, 72 h). The inhibition at 1 µM on CDK2/E was under 5%; on FLT3wt, under 5%; on Pim-1 it was 67%; on Pim-3, 92%.

Regarding `CC(C)=CCn1c(N2CCNCC2)nc2c([N+](=O)[O-])c(Br)c(Br)cc21` [Example 2E, 5,6-dibromo-1-(3-methylbut-2-en-1-yl)-4-nitro-2-(piperazin-1-yl)-1H-1,3-benzodiazole hydrochloride], the inhibition at 1 µM on DYRK1 was determined as 72%; on CDK2/E, 15%; on Pim-2 it was 63%; on FLT3wt, 25%; at Pim-1, 79%; at Pim-3, 56%. For the same molecule, the IC50 with MV4-11 cells (Homo sapiens, MV4-11, 72 h) was found to be 5500 nM; in the data set with Jeko-1 cells (Homo sapiens, JeKo-1), 1600 nM; in the data set with SW-480 cells (Homo sapiens, SW480), 1800 nM; with HepG2 cells (Homo sapiens, HepG2, 72 h) it was 900 nM; in the data set on HEL92 cells (Homo sapiens, 72 h), 5400 nM.

As for `O=[N+]([O-])c1c(Br)c(Br)cc2c1nc(N1CCNCC1)n2C1CC1` [Example 21A, 5,6-dibromo-1-cyclopropyl-4-nitro-2-(piperazin-1-yl)-1H-1,3-benzodiazole trifluoroacetate], the inhibition at 1 µM at DYRK1 was 50%; at CDK2/E, 5%; at Pim-2, 42%; on FLT3wt, 37%; at Pim-1 it was 87%; on Pim-3, 71%. The IC50 in the data set on MV4-11 cells (Homo sapiens, MV4-11, 72 h) turned out to be 500 nM; in the data set on Jeko-1 cells (Homo sapiens, JeKo-1), 600 nM; with SW-480 cells (Homo sapiens, SW480), 3200 nM; in the data set on HepG2 cells (Homo sapiens, HepG2, 72 h) it was 1600 nM; with HEL92 cells (Homo sapiens, 72 h), 1900 nM.

`CCn1c(NC2CCC(O)CC2)nc2c([N+](=O)[O-])c(Br)c(Br)cc21` (stereo not shown) [Example 22B, 4-[(5,6-dibromo-1-ethyl-4-nitro-1H-1,3-benzodiazol-2-yl)amino]cyclohexan-1-ol]: the IC50 was 7900 nM with MV4-11 cells (Homo sapiens, MV4-11, 72 h); 3000 nM with Jeko-1 cells (Homo sapiens, JeKo-1); 6000 nM in the data set with SW-480 cells (Homo sapiens, SW480); over 10000 nM with HepG2 cells (Homo sapiens, HepG2, 72 h); 8800 nM with HEL92 cells (Homo sapiens, 72 h).
